Patent US6866833B1, “Substituted thiourea complexing agent and a method for extracting a noble metal from a matrix using the complexing agent” (University College Cork, priority 1999, dated 2005)

Columns and labels:
[1] = Solubility of the ligand in supercritical CO2 (weight loss of glass tube after static SFE); assay type: physicochemical; details: 60° C.; for Solubility in SF—CO2: approx. 60 mg ligand, 2.2 ml 100% SF—CO2, static 30 minutes, 200 and 300 atmospheres
Description: The solubility of the ligand of the comparative Examples (a)-(c) in supercritical CO2 was compared with the solubilities of the ligands of Examples 1 and 2 and 3 in supercritical CO2.
In each case, a weighed amount of the ligand of the respective comparative Example of approximately 60 mg was placed in a glass tube (2 cm×0.5 cm i.d.) and plugged with glass wool at both ends. The glass tube was placed inside the extraction vessel and statically extracted for 30 minutes. The inlet valve for SF—CO2 was then closed and the outlet valve opened into a collecting solution. The loss of weight of the glass tube after SFE corresponded to the solubility of the ligand in 2.2 ml 100% SF—CO2. The procedure was carried out at 60° C. and two different pressures namely 200 and 300 atmospheres.

[2] = Supercritical fluid extraction of Au(III) as AuCl4^− from filter paper, gold determined by atomic absorption spectroscopy; details: observed after Au(III) SFE runs, 20 mg ligand
Description: Gold Au(III) extraction by the ligand of the comparative Example (a) was investigated employing a BDH Gold (III) standard containing 1000 ppm Au(III) (aqueous AuCl4^−). Thus 60 μl of solution Au(III) containing 3.05×10^−7 moles Au(III) was applied to a 3 cm diameter filter paper. The filter paper was allowed to dry and then placed in a glass tube (2 cm×0.5 cm i.d.), plugged with glass wool at both ends. 20 mg of ligand of the comparative Example (a) (in excess of over 200 fold over Au(III) level) was then placed in the same glass tube and plugged with glass wool.
The extraction vessel was statically extracted for 20 minutes and then dynamically extracted into a collecting solvent of 4 ml methanol for 15 minutes (0.8 ml CO2/minute flow rate). The methanol solution was then made up to 10 ml using additional methanol. Levels of gold in solution were then determined by atomic absorption spectroscopy. The procedure was carried out at different pressures from 200-400 atm. The following extraction percentages were obtained:
The procedure in Example 5(a) was repeated except the temperature of the extraction procedure was varied from 60-120° C., while maintaining the pressure of the extractor at 400 atm. The following results were obtained:
The procedure in Example 6 was repeated with the ligand from Example 1 being used in place of the ligand of the Comparative Example (a). The following % extraction values were obtained at differing pressures for extraction of Au(III):
The procedure of Example 7 was repeated employing the ligand of Example 2 in place of the ligand of Example 1 and utilising 50 μl Au(III) standard solution in place of 60 μl to give the following % extraction results at differing pressures of SF—CO2 at 60° C.

Row | Compound | Solubility in SF—CO2 [1] | solubility at 30 min ([1]; supercritical CO2, organic solvent or mixture, thermodynamic from solid, larger amounts of ligand, both pressures (200 and 300 atmospheres), read-out: Solubility in SF—CO2) [mM] | Solubility in SF—CO2 (ligand remaining in glass tube after extraction runs) [2]
1 | FC(F)(F)CNC(=S)Nc1cc(C(F)(F)F)cc(C(F)(F)F)c1 [Example 2] | excellent solubility |  | 
2 | CNC(=S)NCC(F)(F)C(F)(F)C(F)(F)F [Example 3(b), N-methyl, N′-heptafluorobutyl thiourea] | excellent solubility | > 700 | 
3 | FC(F)(F)c1cc(NC(=S)NCC(F)(F)C(F)(F)C(F)(F)F)cc(C(F)(F)F)c1 [Example 1] | excellent solubility |  | 
4 | CCCCCCCCCCCCNC(=S)NC [Comparative Example (c), N-methyl, N′-dodecyl thiourea] |  |  | poor solubility
5 | FC(F)(F)c1cc(NC(=S)NCC(F)(F)C(F)(F)C(F)(F)C(F)(F)C(F)(F)C(F)(F)C(F)(F)F)cc(C(F)(F)F)c1 [Example 3(a)] | excellent solubility |  | 
6 | CCCCCCCCNC(=S)NC [Comparative Example (b), N-methyl,N′-octyl thiourea] |  |  | poor solubility
7 | NC(=S)Nc1cc(C(F)(F)F)cc(C(F)(F)F)c1 [Comparative Example (a)] |  |  | poor solubility
